Results from US6534446B1, “Method to mitigate plant stress” (Emerald BioAgriculture Corporation, priority 1994, dated 2003).

How the values were obtained:
Type in all cases: in vivo
[1] = tested on: cabbage plants; assay: Heat stress in cabbage, fresh weight; settings: CaNO3 2500 ppm alone
[2] = tested on: Roundup Ready cotton seeds; assay: Cold-induced inhibition of cotton seed germination; settings: for number of cotton seeds germinated / Fresh Wt.: 300 ppm each component; for Fresh Wt.: seedlings harvested 17 days after planting
[3] = tested on: Duckweed; assay: Copper salt stress in duckweed, dry weight; settings: fifteen days of growth

| Structure (SMILES) | Mean Fresh Weight (g) ± SD ([1]; oven at 48° C. (118° F.) for twelve hours, weighed one week later) | % of Room Temperature Control ([1]; oven at 48° C. for twelve hours) | number of cotton seeds germinated ([2]; 5 days after planting, 59° F. (15° C.)/50° F. (10° C.), 45 seeds) | number of cotton seeds germinated ([2]; 5 days after planting, 75° F. (24° C.), 45 seeds per treatment) | number of cotton seeds germinated ([2]; 7 days after planting, 59° F. (15° C.)/50° F. (10° C.), 45 seeds) | number of cotton seeds germinated ([2]; 7 days after planting, 75° F. (24° C.), 45 seeds) | number of cotton seeds germinated ([2]; 9 days after planting, 59° F. (15° C.)/50° F. (10° C.), 45 seeds) | number of cotton seeds germinated ([2]; 9 days after planting, 75° F. (24° C.), 45 seeds) | seeds germinated, % of all seeds ([2]; 9 days after planting, low temperatures, 45 seeds per treatment) | number of cotton seeds germinated ([2]; 13 days after planting, 59° F. (15° C.)/50° F. (10° C.), 45 seeds) | number of cotton seeds germinated ([2]; 13 days after planting, 75° F. (24° C.), 45 seeds) | number of cotton seeds germinated ([2]; 17 days after planting, 59° F. (15° C.)/50° F. (10° C.), 45 seeds) | number of cotton seeds germinated ([2]; 17 days after planting, 75° F. (24° C.), 45 seeds) | Fresh Wt. ([2]; 59° F. (15° C.)/50° F. (10° C.)) | Fresh Wt. ([2]; 75° F. (24° C.)) | Average Dry Weight (mg) ± SD ([3]; Copper 1.7 ppm) | % Change From Control ([3]; Copper 3.3 ppm) | Average Dry Weight (mg) ± SD ([3]; Copper 3.3 ppm) |
| --- | --- | --- | --- | --- | --- | --- | --- | --- | --- | --- | --- | --- | --- | --- | --- | --- | --- | --- |
| O=[N+]([O-])[O-].O=[N+]([O-])[O-].[Ca+2] [CaNO3, calcium nitrate] | 28.8 ± 5.6 g | 77% | 0 | 9 | 0 | 38 | 6 | 41 | 13% | 23 | 42 | 31 | 43 | 4.01 g | 8.70 g | – | – | – |
| O.O.O.O.O.O=S(=O)([O-])[O-].[Cu+2] [Copper, CuSo4SH2O] | – | – | – | – | – | – | – | – | – | – | – | – | – | – | – | 18.0 ± 4.7 mg | −70% | 8.3 ± 0.7 mg |
